Experiment: Small volume in vitro release test in 50 ml 0.1N HCl (model of fasted stomach)
Type: physicochemical
Conditions: 37° C., 150 rpm
Description: The formulations were tested for their small volume in vitro release characteristics in 50 ml 0.1N HCl at 37° C. and 150 rpm using the following procedure: III. Instrumentation (or Equivalent) a. Automated Dissolution System comprising of: Hanson SR8 Plus Test Station Hanson Auto Plus Maximiser System Controller Hanson Auto Plus MultiFill Fraction Collector b. HPLC System comprising of: pump—Merck Hitachi L-7100 autoinjector—Merck Hitachi L-7200 column oven—Merck Hitachi L-7300 detector—Merck Hitachi L-7400 interface and integration software—Merck Hitachi D-7000
0.1N HCl Preparation Dilute 8.5 ml HCl 37% to 1 liter with purified water. Procedure Place one weighed capsule in each vessel containing 0.1N HCl and immediately operate the apparatus for 30 min. Unless otherwise specified, 3 ml samples are withdrawn from each vessel and immediately filtered through PTFE membranes at 15 and 30 min.
The small volume was chosen as a model of the conditions in a fasted stomach.

dissolution in 50 ml 0.1N HCl (in words): no dissolution at all
% dissolved 15 min (15 min): 0%
% dissolved 30 min (30 min): 0%
SMILES: CC(C)OC(=O)C(C)(C)Oc1ccc(C(=O)c2ccc(Cl)cc2)cc1 [Micronized Fenofibrate]
